From article PMC10672332, “Lecanicilliums A–F, Thiodiketopiperazine-Class Alkaloids from a Mangrove Sediment-Derived Fungus Lecanicillium kalimantanense” (Marine Drugs, 2023)
Values after ≈ are worked out from the molar mass of the structure shown. Like-named read-outs stand apart in the source and are kept apart here.

What was measured:
[1] = tested on: brine shrimps; test: Brine shrimp lethality bioassay; format: in vivo; details: Table 3
Source text: The methods were the same as those used in our previous studies.

[2] = tested on: Bacillus subtilis BS01; test: Antibacterial assay, micro broth dilution; format: cell-based; details: read-out: Antibacterial Activity (MIC) B. subtilis
Procedure: (§1) The micro broth dilution method was used to evaluate the antibacterial activities of compounds 1–19 against the growth of eight common pathogens: Bacillus subtilis BS01, Micrococcus luteus, Escherichia coli ATCC 25922, Staphylococcus aureus ATCC 6538, S. aureus MRSA, Streptococcus agalactiae ATCC 13813, S. iniae, and Pseudomonas aeruginosa ATCC 9027 in 96-well polystyrene plates. Vancomycin and ciprofloxacin were used as positive controls. Briefly, wells containing 100 μL bacteria dilutions (OD600 = 0.01) in Luria–Bertani (LB) medium were supplemented with different concentrations of 1–19 (80, 40, 20, 10, 5, 2.5, 1.25, and 0.625 μg/mL), vancomycin, and ciprofloxacin (40, 20, 10, 5, 2.5, 1.25, 0.625, and 0.3125 μg/mL), respectively. The MICs were determined after 24 hours’ incubation at 37 °C with the tested compounds.

[3] = tested on: Streptococcus agalactiae ATCC 13813; test: Antibacterial assay, micro broth dilution; format: cell-based; details: read-out: Antibacterial Activity (MIC) S. agalactiae
Procedure: as §1

[4] = tested on: S. aureus MRSA; test: Antibacterial assay, micro broth dilution; format: cell-based; details: Staphylococcus aureus, read-out: Antibacterial Activity (MIC) MRSA
Procedure: as §1

[5] = tested on: Micrococcus luteus; test: Antibacterial assay, micro broth dilution; format: cell-based; details: read-out: Antibacterial Activity (MIC) M. luteus
Procedure: as §1

[6] = tested on: S. iniae; test: Antibacterial assay, micro broth dilution; format: cell-based; details: Streptococcus iniae, read-out: Antibacterial Activity (MIC) S. iniae
Procedure: as §1

[7] = tested on: Pseudomonas aeruginosa ATCC 9027; test: Antibacterial assay, micro broth dilution; format: cell-based; details: read-out: Antibacterial Activity (MIC) P. aeruginosa
Procedure: as §1

[8] = tested on: Staphylococcus aureus ATCC 6538; test: Antibacterial assay, micro broth dilution; format: cell-based; details: read-out: Antibacterial Activity (MIC) S. aureus
Procedure: as §1

[9] = tested on: Escherichia coli ATCC 25922; test: Antibacterial assay, micro broth dilution; format: cell-based; details: read-out: Antibacterial Activity (MIC) E. coli
Procedure: as §1

[10] = Cytotoxicity, CCK-8 method; format: cell-based; details: human
Procedure: (§2) Cytotoxic activity was evaluated using the human lung adenocarcinoma cell line H1975 and human hepatocellular carcinoma cell line HepG-2, using the CCK-8 method as described in our previous study. Briefly, each of the test compounds was dissolved in DMSO and further diluted to give final concentrations of 80, 40, 20, 10, 5, 2.5, and 1.25 μM, respectively. H1975 cells or HepG-2 cells (5 × 10^3 […]) were seeded in 96-well plates and treated with compounds at the indicated concentration for 24 hours and then 10 μL CCK-8 reagent was added to each well. The plates were incubated at 37 °C for another 4 hours. Finally, the optical density was measured at a wavelength of 450 nm with a Bio-Rad microplate reader. Dose–response curves were generated, and the IC50 values were calculated from the linear portion of log dose–response curves.

[11] = Cytotoxicity, CCK-8 method; format: cell-based; details: human; remark: listed apart in the source
Procedure: as §2

[12] = BS01, micro broth dilution, LB medium, 24 hours at 37 °C
[13] = ATCC13813, micro broth dilution, LB medium, 24 hours at 37 °C
[14] = micro broth dilution, LB medium, 24 hours at 37 °C
[15] = ATCC9027, micro broth dilution, LB medium, 24 hours at 37 °C
[16] = ATCC6538, micro broth dilution, LB medium, 24 hours at 37 °C
[17] = ATCC25922, micro broth dilution, LB medium, 24 hours at 37 °C
[18] = HepG-2 cells (hepatocellular carcinoma cell line), HepG-2 cells, CCK-8, 24 hours treatment, read-out: Cytotoxicity (IC50) against HepG-2
[19] = H1975 cells (lung adenocarcinoma cell line), H1975 cells, CCK-8, 24 hours treatment, read-out: Cytotoxicity (IC50) against H1975

Structure (SMILES)	Toxicity (TC50) Brine Shrimp [1] [µg/mL]	MIC [2, 12] [µg/mL]	MIC [3, 13] [µg/mL]	MIC [4, 14] [µg/mL]	MIC [5, 14] [µg/mL]	MIC [6, 14] [µg/mL]	MIC [7, 15] [µg/mL]	MIC [8, 16] [µg/mL]	MIC [9, 17] [µg/mL]	other results
O=C1N2C3OC=CC4SC2(CC3C4O)C(=O)NC12Cc1ccccc1O2 (stereo not shown) [Compound 1, Lecanicillium A]	>80	60 (≈ 161 µM)	> 80	> 80	> 80	> 80	> 80	> 80	> 80	–
CS[C@@]12CC3=COC=C[C@H](OC(C)=O)[C@H]3N1C(=O)[C@]1(SC)CC3=COC=C[C@H](O)[C@H]3N1C2=O [Compound 10, bisdethiobis(methylsulfanyl)-aranotin]	>80	> 80	> 80	> 80	> 80	> 80	> 80	> 80	> 80	IC50 at 24 h [10]: > 80 µM; IC50 at 24 h [11]: > 80 µM
CS[C@@]12CC3=CC=C[C@H](OC(C)=O)[C@H]3N1C(=O)[C@]1(SC)CC3=COC=C[C@H](OC(C)=O)[C@H]3N1C2=O [Compound 12, bisdethiobis(methylsulfanyl)acetylapoaranotin]	50	> 80	50 (≈ 96.4 µM)	> 80	50 (≈ 96.4 µM)	> 80	> 80	> 80	> 80	IC50 at 24 h [10]: > 80 µM; IC50 at 24 h [11]: > 80 µM
CN[C@H](CC(C)C)C(=O)N[C@H]1C(=O)N[C@@H](CC(N)=O)C(=O)N[C@H]2C(=O)N[C@H]3C(=O)N[C@H](C(=O)N[C@H](C(=O)O)c4cc(O)cc(O)c4-c4cc3ccc4O)[C@H](O)c3ccc(c(Cl)c3)Oc3cc2cc(c3O[C@@H]2O[C@H](CO)[C@@H](O)[C@H](O)[C@H]2O[C@H]2C[C@](C)(N)[C@H](O)[C@H](C)O2)Oc2ccc(cc2Cl)[C@H]1O [VMN, Vancomycin, reference compound]	–	–	–	–	–	–	–	–	–	MIC ([4]; 24 h): 2.5 µg/mL (≈ 1.73 µM); MIC ([5]; 24 h): 0.6 µg/mL (≈ 0.414 µM)
O=C(O)c1cn(C2CC2)c2cc(N3CCNCC3)c(F)cc2c1=O [CFN, Ciprofloxacin, reference compound]	–	0.6 (≈ 1.81 µM)	5 (≈ 15.1 µM)	–	–	2.5 (≈ 7.54 µM)	0.6 (≈ 1.81 µM)	0.6 (≈ 1.81 µM)	0.6 (≈ 1.81 µM)	–
CS[C@@H]1NC(=O)[C@@](Cc2ccccc2)(SC)NC1=O [Compound 19, citriperazine B]	–	80 (≈ 270 µM)	> 80	> 80	70 (≈ 236 µM)	> 80	> 80	> 80	> 80	IC50 at 24 h [10, 18]: > 80 µM; IC50 at 24 h [11, 19]: > 80 µM
CS[C@@]12CC3=CC=C[C@H](OC(C)=O)[C@H]3N1C(=O)[C@]1(SC)CC3=CC=C[C@H](OC(C)=O)[C@H]3N1C2=O [Compound 15, haematocin]	>80	–	–	–	–	–	–	–	–	IC50 at 24 h ([10]; HepG-2 cells, CCK-8, 24 hours treatment, read-out: Cytotoxicity (IC50) against HepG-2): > 80 µM; MIC ([2]; BS01, 24 h): 80 µg/mL (≈ 159 µM); MIC ([3]; ATCC13813, 24 h): > 80 µg/mL; MIC ([4]; 24 h): > 80 µg/mL; MIC ([5]; 24 h): > 80 µg/mL; MIC ([6]; 24 h): > 80 µg/mL; MIC ([7]; ATCC9027, 24 h): > 80 µg/mL; MIC ([8]; ATCC6538, 24 h): > 80 µg/mL; MIC ([9]; ATCC25922, 24 h): > 80 µg/mL; IC50 at 24 h ([11]; H1975 cells, CCK-8, 24 hours treatment, read-out: Cytotoxicity (IC50) against H1975): > 80 µM
CS[C@@]1(Cc2ccccc2)NC(=O)[C@H](Cc2ccccc2)NC1=O [Compound 6, Lecanicillium F]	–	> 80	> 80	> 80	> 80	> 80	> 80	> 80	> 80	IC50 at 24 h [10, 18]: > 80 µM; IC50 at 24 h [11, 19]: > 80 µM
